The source of these data is patent publication US20230226065A1, “ANTI-INFLAMMATORY COMPOSITIONS, METHODS AND USES THEREOF” (COMVITA LIMITED, priority 2020, published 2023).

Molecules are shown by their SMILES.

This assay concerns active MMP-9. Nature of the assay: Gelatin gel zymography, active MMP-9 band. The assay is classed as biochemical. The settings on record: active MMP-9 (~37 kDa band); densitometry vs no inhibitor; n=5. As to the method: Novex™ 10% Zymogram Plus (Gelatin) Protein Gels (15 wells) were purchased from Thermo Fisher Scientific Inc. (Auckland, New Zealand). All chemicals required for the zymogram analysis were also purchased from Thermo Fisher, these include Novex™ Sharp Pre-stained Protein Standard, Novex Tris-Glycine SDS sample buffer, Novex Tris-Glycine SDS running buffer, Novex Zymogram renaturing buffer and Novex Zymogram developing buffer. […] Gelatin gel zymography was performed as an independent technique to confirm the inhibition of MMP-9 from 3,6,7-trimethyllumazine. This technique uses a non-reducing SDS-PAGE (sodium dodecyl sulfate polyacrylamide gel electrophoresis) gel embedded with gelatin. Proteins are migrated and separated during electrophoresis. The SDS is removed after electrophoresis and the gel is then incubated with essential cofactors required for enzymatic activity. The embedded gelatin can be digested by MMP-9, resulting in clear bands on a dark blue background after staining with Coomassie blue dyes. The gelatinase activity is represented by band densitometry, which can be assessed with image analysis software. […]
After incubation, the gelatin gel was rinsed with water for three times (5 min each) under gentle agitation. […] MMP-9 activities were analysed using densitometry on ImageJ Version 1.52a. […]

For `Cc1nc2[nH]c(=O)n(C)c(=O)c2nc1C` [3,6,7-trimethyllumazine], the “percentage inhibition of gelatinase activity” value is listed as 31%.
